Assays:
Assay in all cases: relative viability (nuclei count vs DMSO), 5 days (fraction); higher = more cells survive
[1] = compound: CCN1C(=O)C2=CC(=C(N=C2N(C1=O)C3CC3)N)C(=O)N + O=C(CCCCCCC(=O)Nc1ccccc1)NO [Vorinostat] (partner 1 µM)
Summary of the method: (§1)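 Lung cancer cell lines, seeded in 1536-well plates, were treated the following day by pin tool with a single drug or with five library-drug doses (not always all listed) in √10 steps on top of a fixed anchor-drug dose. Cells were fixed and nuclei stained in one step after 5 days, and nuclei were counted. Relative viability is the nuclei count for treated wells divided by that for vehicle wells, reported as medians of duplicate plates.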

[2] = compound: CCN1C(=O)C2=CC(=C(N=C2N(C1=O)C3CC3)N)C(=O)N + C[C@@H](Oc1cc(-c2cnn(C3CCNCC3)c2)cnc1N)c1c(Cl)ccc(F)c1Cl [Crizotinib] (partner 1 µM)
Summary of the method: as §1

[3] = compound: CCN1C(=O)C2=CC(=C(N=C2N(C1=O)C3CC3)N)C(=O)N + C[C@]1(O)C[C@@H](c2nc(-c3ccc4ccc(-c5ccccc5)nc4c3)c3c(N)nccn32)C1 [Linsitinib] (partner 1 µM)
Summary of the method: as §1

[4] = compound: CCN1C(=O)C2=CC(=C(N=C2N(C1=O)C3CC3)N)C(=O)N + CCNC(=O)c1noc(-c2cc(C(C)C)c(O)cc2O)c1-c1ccc(CN2CCOCC2)cc1 [Luminespib] (partner 0.01 µM)
Summary of the method: as §1

[5] = compound: CCN1C(=O)C2=CC(=C(N=C2N(C1=O)C3CC3)N)C(=O)N
Summary of the method: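 Lung cancer cell lines were seeded into 1536-well plates, kept overnight at 37 °C and pinned with five library-drug doses (not always all listed) spaced by √10. After 5 days, nuclei were Hoechst-stained, imaged at 4× and counted with MetaXpress. Viability is treated-well nuclei over vehicle-well nuclei, taken as a median across plates. Plates needed control CV below 25% and at least one doubling.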

Cell Line	relative viability ([1]; first compound 0.253 µM)	relative viability ([1]; first compound 0.8 µM)	relative viability ([1]; first compound 2.53 µM)	relative viability ([1]; first compound 8 µM)	relative viability ([2]; first compound 0.253 µM)	relative viability ([2]; first compound 0.8 µM)	relative viability ([2]; first compound 2.53 µM)	relative viability ([2]; first compound 8 µM)	relative viability ([3]; first compound 0.253 µM)	relative viability ([3]; first compound 0.8 µM)	relative viability ([3]; first compound 2.53 µM)	relative viability ([3]; first compound 8 µM)	relative viability ([4]; first compound 0.253 µM)	relative viability ([4]; first compound 0.8 µM)	relative viability ([4]; first compound 2.53 µM)	relative viability ([4]; first compound 8 µM)	relative viability ([5]; 0.253 µM)	relative viability ([5]; 0.8 µM)	relative viability ([5]; 2.53 µM)	relative viability ([5]; 8 µM)
LU99A	0.471	0.493	0.471	0.469	0.587	0.57	0.476	0.591	0.594	0.578	0.51	0.626	0.249	0.259	0.285	0.234	0.856	0.997	0.904	0.984
LXF-289	0.798	0.744	0.825	0.787	0.834	0.852	0.759	0.84	0.968	0.96	0.833	0.958	0.693	0.73	0.661	0.784	1.01	1.07	0.972	1.01
NCI-H23	0.548	0.715	0.58	0.635	0.387	0.561	0.396	0.532	0.602	0.61	0.56	0.565	0.195	0.203	0.228	0.214	0.86	0.96	0.977	0.984
NCI-H322M	1.04	0.758	1.04	0.931	0.814	0.872	0.887	0.943	0.89	0.9	0.865	0.914	0.724	0.934	0.886	1	0.959	0.929	0.984	0.996
NCI-H358	0.788	0.625	0.628	0.863	0.642	0.551	0.525	0.774	0.718	0.852	0.682	0.808	0.2	0.377	0.423	0.379	1.05	0.913	0.924	0.954
NCI-H441	0.83	0.851	0.994	0.906	0.706	0.654	0.773	0.781	0.49	0.545	0.697	0.53	0.287	0.34	0.419	0.35	1.1	1.04	0.965	1.03
NCI-H460	0.788	0.74	0.625	0.688	0.943	0.969	0.684	0.986	0.927	0.806	0.71	0.71	0.0334	0.0279	0.0363	0.037	0.976	0.989	0.967	0.972

Reference: the supplement of paper PMC10307832
